From patent publication US8263344B2, “Compounds regulating calreticulin, KDEL receptor and/or Erp-57 cell surface exposure and uses thereof to evaluate the efficiency of a cancer treatment” (Institut Gustave Roussy, priority 2006, dated 2012)

What was measured:
[1] = test system: CT26 cells; test: Fluorescence detection of cell surface CRT; format: cell-based, murine
Method: CT26 cells were cultured at 37° C. under 5% CO2 in RPMI 1640 medium supplemented with 10% FCS, penicillin, streptomycin, 1 mM pyruvate and 10 mM HEPES in the presence of doxorubicin (DX; 24 h, 25 μM), mitoxantrone (Mitox; 24 h, 1 μM, Sigma), idarubicin (24 h, 1 μM, Aventis, France), mitomycin C (30 μM, 48 h; Sanofi-Synthelabo, France), and/or zVAD-fmk (50 μM, 24 h; Bachem), tunicamycin (24 h, 65 μM), thapsigargin (24 h, 30 μM), brefeldin A (24 h, 50 μM, Sigma), etoposide (48 h, 25 μM, Tava classics), MG132 (48 h, 10 μM), ALLN (48 h, […]), betulinic acid (24 h, 10 μM), Hoechst 33343 (24 h, 0.2 μM), camptothecine (24 h, 15 μM), lactacystin (48 h, 60 μM), BAY 11-8072 (24 h, 30 μM), staurosporine (24 h, 1.5 μM), bafilomycin A1 (48 h, 300 nM), arsenic trioxide (24 h, 30 μM), C2-ceramide (C2-C; 24 h, 60 μM), calyculin A (48 h, 30 nM), or tautomycin (48 h, […], Sigma) and/or salubrinal (48 h, […], Calbiochem).
CT26 cells (on a glass slide or in 12-well plates) were first washed with FACS buffer (1×PBS, 5% fetus bovine serum, and 0.1% sodium azide) and then incubated with rabbit anti-mouse CRT antibody (1:100, Stressgen) in FACS buffer at 4° C. for 30 min. Cells reacted with anti-rabbit IgG (H+L) Alexa fluor 488-conjugates (1:500) in FACS buffer at 4° C. for 30 min. After washing three times with FACS buffer, surface CRT was detected by cytofluorometric analysis on a FACS Vantage. In some experiments, cells were fixed with 4% paraformaldehyde, counterstained with Hoechst (2 μM; Sigma), followed by fluorescence microscopic assessment with a Leica IRE2 microscope equipped with a DC300F camera.

[2] = test system: CT26 tumours; test: Single intratumoural injection into established CT26 tumours, immunocompetent mice; format: in vivo, BALB/c mice; conditions: for therapeutic effect of intratumoural injection, single agent, immunocompetent mice: established 14-day-old CT26 tumours; for therapeutic effect combined with a cell death inducer (etoposide or mitomycin C), immunocompetent mice: intratumoural
[3] = test system: MCA205, B16F10, J558; test: CRT exposure on a panel of murine tumour cell lines; format: cell-based
[4] = test system: HeLa, A549, HCT116; test: CRT exposure on a panel of human tumour cell lines; format: cell-based
[5] = test system: CT26 tumour cells; test: Anti-tumour vaccination with treated (dying) CT26 cells and challenge with live tumour cells; format: in vivo, BALB/c mice; conditions: mouse, in vivo
[6] = test system: CT26 tumours; test: Single intratumoural injection into established CT26 tumours, athymic mice; parameters: species or system nu/nu Balb/c mice; conditions: mouse, in vivo
[7] = test system: HCT116 colon cancer cell; test: Calreticulin exposure with PP1/GADD34 inhibitory peptide (flow cytometry); format: cell-based, human; conditions: 2 hours
Method: (§1) HCT116 cells (FIG. 7A) or CT26 cells (FIG. 7B) were cultured in complete mediums supplemented with 10% fetal calf serum alone or in the presence of the control peptide (VKKKKIKREIKI-lkaravafsekv) or the PP1/GADD34 inhibitory peptide (VKKKKIKREIKI-lkarkvrfsekv, denominated PP1 peptide) for 2 hours. Cells were washed twice with PBS and fixed in PFA (4% w/v) for 5 min. Cells were stained with an antibody against calreticulin (pAb from Abcam, ab2907) at 1:200 dilution or isotype control, in staining buffer (PBS, 1% FCS) for 30 min on ice, followed by washing. An anti-rabbit Alexa fluor 488 immunoglobulin conjugate (Molecular Probes-Invitrogen) diluted at 1:500 was added for an additional 30 min on ice before washing and analysed by flow cytometry (FACScan, Becton Dickinson). Propidium Iodide (50 μg/ml, Becton Dickinson) was added to the samples to label and exclude permeabilized (dead) cells.

[8] = test system: CT26 colon cancer cells; test: as above; format: cell-based, murine; conditions: 2 hours
Method: as §1

[9] = test system: CT26 cells; test: Phagocytosis of tumour cells by dendritic cells (DC); format: cell-based, BALB/c mice
Method: BM cells were flushed from the tibias and femurs of BALB/c mice with culture medium composed of RPMI 1640 medium (Invitrogen Life Technologies) supplemented with 10% heat-inactivated FBS (Invitrogen), sodium pyruvate, 50 μM 2-ME (Sigma), 10 mM HEPES (pH 7.4), and penicillin/streptomycin (Invitrogen). After one centrifugation, BM cells were resuspended in Tris-ammonium chloride for 2 min to lyse RBC. After one more centrifugation, BM cells (1×10^6 cells/ml) were cultured in medium supplemented with 100 ng/ml recombinant mouse FLT3 ligand (R&D systems) in 6-well plates (Costar Corning). After 7 days, the non-adherent and loosely adherent cells were harvested with Versene, washed and transferred in 12-well plates (1.5×10^6 cells/plate) for cocultures with tumour cells.
In 12-well plates, […] adherent CT26 cells were labelled with Celltracker Green (Calbiochem) and then incubated with drugs. In some experiments viable CT26 were coated with 2 μg/10^6 cells of chicken anti-CRT antibody (ABR affinity bioreagents) or an isotype control for 30 min prior to washing and feeding to dendritic cells Cs. Alternatively CT26 cells were coated with 2 μg/10^6 cells of rCRT on ice for 30 min and washed twice prior to addition to dendritic cells. Cells were then harvested, washed three times with medium supplemented with FBS and cocultured with immature DC for 2 hours at a ratio of 1:1 and 1:5. At the end of the incubation, cells were harvested with versene, pooled with non-adherent cells present in the supernatant, washed and stained with CD11c-FITC antibody. Phagocytosis was assessed by FACS analysis of double positive cells. Phagocytic indexes refer to the ratio between values obtained at 4° C. and values obtained at 37° C. of co-incubation between DC and tumour cells.

[10] = test system: DC; test: DC maturation ex vivo; format: cell-based; conditions: rCRT alone, over a large range of concentrations
[11] = test system: CT26 cells; test: Local immune response: footpad injection, IFN-γ secretion by draining lymph node cells; format: in vivo, Balb/c mice; conditions: foot pad injection
Method: FIG. 4C: Exogenous supply of CRT enhances the immunogenicity of CRT-negative dying cells. CT26 cells lacking CRT expression after depletion of CRT with a siRNA and mitoxantrone treatment or after mitomycin treatment were coated with rCRT (inserts) and then injected in the food pad, followed by assessment of the IFN-γsecretion by cells from the draining lymph nodes as in FIG. 4B.
Tumours were evaluated weekly, using a caliper.

Molecule: O=C(/C=C/c1ccccc1)NC(NC(=S)Nc1cccc2cccnc12)C(Cl)(Cl)Cl (stereo not drawn) [salubrinal]
- CRT exposure at the cell surface [1]: efficiently induced
- therapeutic effect of intratumoural injection, single agent, immunocompetent mice [2]: no major therapeutic effect
- therapeutic effect combined with a cell death inducer (etoposide or mitomycin C), immunocompetent mice [2]: stable disease or complete tumour regression
- CRT exposure, murine tumour cell lines [3]: induced CRT exposure
- CRT exposure, human tumour cell lines [4]: induced CRT exposure
- immunogenic cell death by PP1/GADD34 inhibition alone [5]: not sufficient to induce immunogenic cell death
- therapeutic effect of intratumoural injection, single agent, nu/nu mice [6]: no major therapeutic effect

Molecule: VKKKKIKREIKI-LKARKVRFSEKV (VKKKKIKREIKILKARKVRFSEKV) [peptide comprising SEQ ID NO:4, fragment of GADD34 fused to a DPT-sh1 translocation motif]
- exposure of calreticulin, HCT116 [7]: capable of inducing the exposure of calreticulin
- exposure of calreticulin, CT26 [8]: capable of inducing the exposure of calreticulin

Molecule: VKKKKIKREIKI-lkaravafsekv [mutant control peptide]
- exposure of calreticulin, HCT116 [7]: did not induce calreticulin exposure
- exposure of calreticulin, CT26 [8]: did not induce calreticulin exposure

B1: rCRT: recombinant CRT protein (rCRT), which binds to the surface of the cells (protein, UniProt P27797 18-417, looked up)
Calreticulin: EPAVYFKEQFLDGDGWTSRWIESKHKSDFGKFVLSSGKFYGDEEKDKGLQTSQDARFYALSASFEPFSNKGQTLVVQFTVKHEQNIDCGGGYVKLFPNSLDQTDMHGDSEYNIMFGPDICGPGTKKVHVIFNYKGKNVLINKDIRCKDDEFTHLYTLIVRPDNTYEVKIDNSQVESGSLEDDWDFLPPKKIKDPDASKPEDWDERAKIDDPTDSKPEDWDKPEHIPDPDAKKPEDWDEEMDGEWEPPVIQNPEYKGEWKPRQIDNPDYKGTWIHPEIDNPEYSPDPSIYAYDNFGVLGLDLWQVKSGTIFDNFLITNDEAYAEEFGNETWGVTKAAEKQMKDKQDEEQRLKEEEEDKKRKEEEEAEDKEDDEDKDEDEEDEEDKEEDEEEDVPGQAKDEL
- phagocytosis by DC and CRT expression after CRT-specific siRNA, with addition of rCRT [9]: could reverse the defect
- effect of rCRT injected into a distant site on intratumourally injected etoposide ([2]; contralateral subcutaneous injection): did not ameliorate the antitumoural effects
- therapeutic effect of intratumoural injection, single agent, immunocompetent mice [2]: no major therapeutic effect
- therapeutic effect combined with a cell death inducer (etoposide or mitomycin C), immunocompetent mice [2]: able to cause tumour regression
- DC maturation [10]: could not promote DC maturation
- immunogenicity (interferon production by T cells from popliteal lymph node) of mitomycin-treated cells coated with rCRT [11]: greatly enhanced the immunogenicity
- anti-cancer immune response to rCRT-coated cells without prior treatment with cell death inducers [5]: failed to elicit an anti-cancer immune response
- anti-tumour immune response to etoposide-treated cells coated with rCRT [5]: elicited a vigorous anti-tumour immune response
- immunogenicity of mitoxantrone-treated CT26 cells with CRT knock-down, complemented with rCRT [5]: restored
- therapeutic effect of intratumoural injection, single agent, nu/nu mice [6]: no major therapeutic effect
